Data on two compounds can be found in patent publication US20140038920A1, “TFEB PHOSPHORYLATION INHIBITORS AND USES THEREOF” (FONDAZIONE TELETHON, priority 2011, published 2014).

In assay [1] the test system is TFEB S142. Briefly: TFEB S142 phosphorylation with p-S142 phospho-antibody in HeLa cells (FIG. 20A). The assay is classed as cell-based. The note with it: starved cells supplemented with normal media with inhibitor. Here is the method:
FIG. 20 mTORC1 phosphorylates TFEB at serine 142 (S142). […] HeLa cells were treated as indicated and total and nuclear extracts were probed with a TFEB p-S142 phospho-antibody and with anti-FLAG antibody. (B) Schematic representation of TFEB protein structure with the predicted mTORC1 phosphorylation sites and their conservation among vertebrates. Numbering is according to human isoform 1. (C) Sequence conservation scores of the phosphorylation sites and quantitative agreement between mTOR consensus motif and the sequence around the phosphorylation sites of TFEB. (D) S142 and S211 regulate TFEB localization. Flag immunostaining of TFEB subcellular localization in HeLa cells expressing serine-to-alanine mutated versions of TFEB-3×Flag. Nuclei were stained with DAPI. Values are means of five fields containing at least 50 transfected cells. Student's t-test (unpaired) ***P<0.001. Scale bars represent […].
The mouse anti-TFEB monoclonal antibody was purchased from My Biosource catalogue No. MBS 120432. To generate anti-pS142 specific antibodies, rabbits were immunized with the following peptide coupled to KLH: AGNSAPN{pSer}[…]. Following the fourth immunization, rabbits were sacrificed and the serum was collected. Non-phosphospecific antibodies were depleted from the serum by circulation through a column containing the nonphosphorylated antigene. […]

Assay [2] concerns TFEB. Briefly: TFEB molecular weight shift and localization in TFEB-3xFLAG HeLa cells stimulated with amino-acid rich medium plus inhibitor (FIG. 19B). It counts as cell-based. Particulars: Torin 1 250 nM, Rapamycin 2.5 μM. Here is the method: FIG. 19 mTORC1 regulates TFEB. (A) Lysosomal stress inhibits mTOR signaling. Immunoblotting of protein extracts isolated from HeLa cells treated overnight, as indicated. Membranes were probed with antibodies for p-T202/Y204-ERK1/2, ERK1/2, p-T389-S6K, and S6K to measure ERK and mTORC1 activities. […] FLAG immunoblotting of cytosolic and nuclear fractions isolated from TFEB-3×FLAG HeLa cells cultured in amino acid-free media and subsequently stimulated as indicated for at least 3 h. Correct subcellular fractionation was verified with H3 and tubulin antibodies. (C, D) Effects and dose—response curves of ERK and mTOR inhibitors on TFEB nuclear translocation. […] After 3 h at 37° C. in RPMI medium containing one of each of the compounds, the cells were washed, fixed, and stained with DAPI and photographed by using confocal automated microscopy (Opera high content system, Perkin Elmer). (C) Representative images of test concentrations for each compound. Scale bars represent 30 μm. […] The EC50 for each compound was calculated using Prism software (see Materials and Methods for details). (E) Amino acids induce TFEB molecular weight shift. Immunoblotting of protein extracts isolated from HEK-293T cells transfected either TFEB-3×FLAG or with an empty vector were nutrient starved and stimulated for 50 minutes with amino acids (a.a.). Antibody used were p-T389-S6K, S6K and FLAG. (F) Rag knockdown induces TFEB nuclear translocation. HeLa cells stably expressing Flag-3×TFEB were infected with lentiviruses encoding a Short hairpin (Sh-) RNA targeting luciferase (control) or RagC and RagD mRNAs. […] TFEB localization was detected with a FLAG antibody, whereas tubulin and H3 were used as controls for the cytosolic and nuclear fraction, respectively; levels of S6K phosphorylation were used to test RagC and RagD knockdown efficiency.
The mouse anti-TFEB monoclonal antibody was purchased from My Biosource catalogue No. MBS 120432. To generate anti-pS142 specific antibodies, rabbits were immunized with the following peptide coupled to KLH: AGNSAPN{pSer}[…]. Following the fourth immunization, rabbits were sacrificed and the serum was collected. Non-phosphospecific antibodies were depleted from the serum by circulation through a column containing the nonphosphorylated antigene. The phosphospecific antibodies were subsequently purified using a column containing the phosphorylated peptide. Cells were lysed with M-PER buffer (Thermo) containing protease and phosphatase inhibitors (Sigma); nuclear/cytosolic fractions were isolated as above described. Proteins were separated by SDS-PAGE (Invitrogen; reduced NuPAGE 4-12% Bis-tris Gel, MES SDS buffer). If needed, the gel was stained using 20 ml Imperial Protein Stain (Thermo Fisher) at room temperature for 1 h and de-stained with water. […]

Take `CCC(=O)N1CCN(c2ccc(-n3c(=O)ccc4cnc5ccc(-c6cnc7ccccc7c6)cc5c43)cc2C(F)(F)F)CC1` [TORIN 1]: in assay [1], the “nutrient-induced S142 phosphorylation of TFEB” value was “clearly blunted nutrient-induced S142 phosphorylation”. Also, in assay [2], the “TFEB subcellular localization after nutrient stimulation” value is recorded as “massive TFEB nuclear accumulation”.
In the case of `CO[C@H]1C[C@@H]2CC[C@@H](C)[C@@](O)(O2)C(=O)C(=O)N2CCCC[C@H]2C(=O)O[C@H]([C@H](C)C[C@@H]2CC[C@@H](O)[C@H](OC)C2)CC(=O)[C@H](C)/C=C(\C)[C@@H](O)[C@@H](OC)C(=O)[C@H](C)C[C@H](C)/C=C/C=C/C=C/1C` [RAPAMYCIN], in assay [1], the “nutrient-induced S142 phosphorylation of TFEB” value was “did not”. Moreover, the “TFEB subcellular localization after nutrient stimulation” value in assay [2] is reported as “did not affect TFEB subcellular localization”. In addition, the “TFEB molecular weight shift induced by nutrients” value in assay [2] (U0126 50 μM) is given as “partial molecular weight shift”.
